Measured values taken from publication PMC4111866, “Enhancement in corneal permeability of riboflavin using calcium sequestering compounds” (International Journal of Pharmaceutics, 2014).
“Also recorded” adds a separate entry of the source.

Assays:
[1] = tested on: bovine cornea; test: Transepithelial electrical resistance (TEER) of cornea in Ussing chambers; conditions: chelator 1 mg mL^−1 in PBS in donor chamber, 120 min, 34 °C, baseline deducted; initial 2.28 ± 0.06, PBS control 1.93 ± 0.04
[2] = tested on: bovine cornea epithelium; test: Corneal integrity: fluorescence microscopy of DAPI-stained cornea sections after exposure; conditions: chelator 1 mg mL^−1 in PBS pH 7.4 ± 0.2, 3 h exposure; PBS shows no disruption
Description: A Franz diffusion cell donor chamber was placed on the cornea as a means to contain the dose; the setup was wrapped in cling-film ensuring a good seal between the donor chamber and the cornea; these were placed in a water bath at 34 ± 1 °C. Individual eyes were exposed to PBS or solutions of EDTA, EGTA or EDDS at 1 mg mL^−1 in PBS, all at pH 7.4 ± 0.2 by placing 1 mL solution onto the cornea.
From the above experiment, corneas were dissected after exposure, and sections were prepared for microscopy by setting cornea segments in OCT, quick freezing on dry ice and subsequent sectioning. […] Specimens were stained using Vectashield with DAPI mounting medium, and a glass coverslip applied. All cornea sections were examined within seven days of preparation using an AXIOCAM MRm 1.3 MP digital camera attached to a Zeiss AXIO Imager A1 fluorescent microscope, using AXIO Vs 40 V.4.8.2.0 software (Zeiss, Oberkochen, Germany). A 10× magnification eyepiece together with a 5× magnification objective lens was employed, and DAPI fluorescence filter was selected.

[3] = tested on: bovine cornea; test: Whole eye experiment: Ca^2+ extraction from cornea, analysed by atomic absorption spectrometry; conditions: chelator 1 mg mL^−1 in PBS pH 7.4 ± 0.2, 3 h exposure of whole bovine eye cornea, 34 °C, n = 3; PBS alone 54.67 ± 7.04 ppm
Description: Calcium ion analysis was conducted using a novAA 350 system with […] software, version 4.5.0 (Analytik JENA, Germany). […] Quantitation achieved by reference to a calibration curve produced from Ca^2+ standards in ultrapure water incorporating 5% w/v lanthanum chloride as a releasing agent.

[4] = tested on: bovine cornea; test: Cornea extracts: riboflavin absorbed into cornea, ethanol extraction and HPLC; type: in vitro ADME; conditions: n = 3; for Riboflavin pg mg^−1 cornea: riboflavin in PBS pH 7.4 ± 0.2 without chelator
Description: Analysis was conducted using a PerkinElmer series 200 HPLC system comprising of 785 A UV–vis detector, series 200 quaternary pump and series 200 autosampler (PerkinElmer Inc., UK), Hamilton PRP-1 reversed phase column, 150 mm × 4.1 mm, 10 μm (part number: 79425) and data acquisition software (Peaksimple, version 4.09, SRI Inc., USA). […] Isocratic conditions were used at 25 °C with the mobile phase comprising of 20% ethanol and 80% ion-pair buffer, flow rate 0.8 mL min^−1, 10 μL injection volume, UV detector at 267 nm corresponding to riboflavin absorption λmax, a retention time of 3.05 min. Quantitation was achieved by reference to a calibration curve produced from riboflavin standards in PBS, pH 7.4 ± 0.2 at concentrations ranging from 0.01 to 25 μg mL^−1 (r^2 = 0.9996).
Corneas from the riboflavin permeability experiment were trimmed of sclera, gently blotted with tissue paper, weighed and placed in glass vials to which 5 mL absolute ethanol was added to extract absorbed riboflavin. Differences in its accumulation within the corneas between different solutions were compared. The vials were stored at room temperature shielded from light for three days. From these vials, 1 mL of extract solvent was centrifuged at 10,000 rpm for 10 min, and the supernatant transferred to autosample vials for HPLC analysis.

[5] = Corneal permeability of riboflavin in Franz diffusion cells; type: in vitro ADME, bovine; set-up: Steady-state flux of riboflavin / Papp at 240 min: dose or concentration left out as unconfirmed; conditions: bovine, pH 7.4
Description: (§1) Analysis was conducted using a PerkinElmer series 200 HPLC system comprising of 785 A UV-vis detector, series 200 quaternary pump and series 200 autosampler (PerkinElmer Inc., UK), Hamilton PRP-1 reversed phase column, 150 mm × 4.1 mm, 10 μm (part number: 79425) and data acquisition software ([…], version 4.09, SRI Inc., USA). […] Bovine corneas were mounted in Franz diffusion cells (FDC), epithelium side facing the donor compartment. The receiver compartment was filled with pre-warmed and degassed PBS (16.5 mL). […] Riboflavin is known to be photodegradable ([Terekhova et al., 2011]), therefore the whole experiment was shielded with aluminium foil. Sink conditions were employed with 0.4 mL aliquots taken every 60 min for 240 min. HPLC analysis was carried out immediately after all samples had been collected to avoid drug degradation.

[6] = tested on: bovine cornea; test: as above; type: in vitro ADME; set-up: Steady-state flux of riboflavin / Papp at 240 min: dose or concentration left out as unconfirmed
Description: as §1

| mean amount of riboflavin extracted from cornea ([4]; corneas after permeability experiment, riboflavin 0.1 mg mL^−1 in PBS without chelator) [ng] | Riboflavin pg mg^−1 cornea [4] [pg/mg] | Riboflavin pg mg^−1 cornea ([4]; listed as riboflavin) [pg/mg] | Papp at 240 min [5] [×10⁻⁶ cm/s] | concentration of riboflavin in the receiving solution at 240 min ([6]; riboflavin 0.1 mg mL^−1 in PBS pH 7.4 without chelator, 34 °C) [ng/mL] | Steady-state flux of riboflavin ([6]; riboflavin solution in PBS without chelator) [µmol/min] | SMILES | TEER value after 2 h [1] [kΩ cm^2] | histological changes of corneal epithelium [2] | calcium sequestering performance from bovine cornea (Ca^2+ concentration in solution) [3] [ppm] |
| --- | --- | --- | --- | --- | --- | --- | --- | --- | --- |
| – | – | – | – | – | – | O=C(O)CN(CCN(CC(=O)O)CC(=O)O)CC(=O)O [EDTA, Ethylenediaminetetraacetic acid] | 1.38 ± 0.03 | some swelling with voids throughout this layer; also recorded: perforation seems to penetrate the whole of the epithelium | 98.97 ± 9.86 |
| – | – | – | – | – | – | O=C(O)CC(NCCNC(CC(=O)O)C(=O)O)C(=O)O (stereo not drawn) [EDDS, ethylenediamine-N,N′-disuccinic acid] | 1.62 ± 0.04 | some swelling with voids throughout this layer | 87.60 ± 3.30 |
| – | – | – | – | – | – | O=C(O)CN(CCOCCOCCN(CC(=O)O)CC(=O)O)CC(=O)O [EGTA, ethylene glycol-bis(2-aminoethylether)-N,N,N′,N′-tetraacetic acid] | 1.42 ± 0.02 | intense disruption to the superficial epithelial layers and a relatively undisturbed basal layer | 119.57 ± 27.28 |
| 50.41 ± 2.80 | 62.46 ± 0.98 | 62.46 | 1940 ± 325 | 5.74 ± 0.96 | 0.0478 ± 0.0080 | Cc1cc2nc3c(=O)[nH]c(=O)nc-3n(C[C@H](O)[C@H](O)[C@H](O)CO)c2cc1C [Riboflavin, riboflavin] | – | – | – |
